These are literature values, as cited in US10172842B2, “Sustained release oral dosage form containing dalfampridine” (PharmaDax Inc., priority 2015, dated 2019).

For series [1] the following is noted: in the absence of other risk factors.
For series [2] the following is noted: plasma concentrations lower than 13 ng/mL.

On to `Nc1ccncc1` [dalfampridine, 4-aminopyridine], for which the “plasma dalfampridine concentration considered a likely threshold for increased risk of seizure” value in series [1] is on record as “approximately 100 ng/mL”. Also, in series [2], the “changes in walking speed in MS patients” value is “low percentage changes in walking speed”.
